These sequences were tested on Myo5 SH3 domain (assay: SPOT analysis of cellulose-bound peptides (WISE), Myo5 SH3 domain (Dataset S4)). Settings: SPOT analysis of cellulose-bound 14-mer yeast proteome peptides, Myo5 SH3 domain; normalized value; mean where the peptide was synthesized more than once.
Assay type: binding, Saccharomyces cerevisiae

Row | Sequence | The normalized value in BLU units
1 | DEFTLDLPRIPSLE | 180.8 BLU
2 | FANIKREPVHPEIR | 188.2 BLU
3 | KSYRKADPTNPQGW | 103.0 BLU
4 | SLCALVGPVIPHTI | 28.4 BLU
5 | RRLKKNLPSLPTPV | 823.8 BLU
6 | LLYLMTYPQQPMVK | 161.7 BLU
7 | AAMNLETPSNPDSA | 84.9 BLU
8 | RERPLEPPRKPMAS | 967.3 BLU
9 | VAGYFVIPHTPMPS | 179.6 BLU
10 | TPTHHHIPHIPNQN | 147.9 BLU
11 | MASFLPVPEKPNLI | 161.0 BLU
12 | TLRSMIPPFTPQLD | 412.7 BLU
13 | MAEFRRVPLPPMAE | 442.6 BLU
14 | RFHVFCEPILPSVA | 158.0 BLU
15 | PYMYKYLPRFPNLK | 382.1 BLU
16 | LTSVKIVPQRPISD | 89.0 BLU

Same assay, conditions: SPOT analysis of cellulose-bound peptides probed with Myo5 SH3 domain; normalized value

Row | Sequence | The normalized value in BLU units (SPOT analysis, Myo5 SH3)
17 | VLSKFIKPKNPSLV | 319.5 BLU
18 | FENLLMEPNLPFFT | 202.2 BLU
19 | TPSNMGSPGSPVNV | 156.2 BLU
20 | FFPIMSLPVTPVKS | 122.3 BLU
21 | APKYYVPPGIPTND | 10351.6 BLU
22 | SELTFIAPTQPVST | 110.5 BLU
23 | DLKEFNGPEPPIKR | 125.6 BLU
24 | SPSDFNKPDLPELI | 316.9 BLU
25 | PEDFLPPPPKPHFA | 125.8 BLU
26 | NASLLRDPSAPYAH | 133.8 BLU
27 | PETRMDLPFSPEVN | 130.3 BLU
28 | SFRKLASPSNPNFF | 208.8 BLU
29 | LEFSHYAPTAPHVQ | 103.0 BLU
30 | ALKSLSNPSSPWQQ | 30.3 BLU

Same assay, conditions: SPOT analysis of membrane-bound peptides, Myo5 SH3 domain; normalized value (see methods)

Row | Sequence | The normalized value in BLU units
31 | IDIPRTNPHIPLYQ | 139.2 BLU
32 | PESAKCNPNSPRLK | 253.0 BLU
33 | VAPNRIPPKVPVIN | 61069.9 BLU
34 | IAEWKNDPNNPNFE | 91.1 BLU
35 | EHLQKERPKPPNKG | 363.6 BLU
36 | LPEKKNSPTTPSVF | 102.5 BLU
37 | KVNFRRIPTGPDSP | 502.6 BLU
38 | KFDAKGRPIPPHPD | 53.5 BLU
39 | NITEKSPPKSPKHK | 292.3 BLU
40 | MLNSKHYPYIPVAN | 170.8 BLU
41 | TLNDRQIPLSPDQM | 73.6 BLU
42 | EKESRHYPIKPPSP | 179.9 BLU

Same assay, conditions: SPOT analysis of membrane-synthesized peptides probed with Myo5 SH3 domain; normalized value

Row | Sequence | The normalized value in BLU units (SPOT analysis, Myo5 SH3)
43 | PQTMRQAPKRPDAD | 3257.1 BLU
44 | FSTKKSKPIRPFVF | 378.5 BLU
45 | DENSKWQPSDPFTM | 285.2 BLU
46 | EELARVTPLTPKEY | 181.5 BLU
47 | LSKLRLSPENPSNT | 157.2 BLU
48 | YILPKTDPRSPYYI | 188.5 BLU
49 | HEREKALPPIPFTT | 214.6 BLU
50 | GQIDRDKPSEPERT | 100.5 BLU
51 | LNRQKNYPDAPAIF | 86.4 BLU
52 | KQAKRAPPSSPYVV | 295.0 BLU
53 | PFIRRYTPLKPITK | 649.2 BLU
54 | LDPGKNTPGLPEET | 155.6 BLU
55 | RLIKRLKPPAPKEP | 403.1 BLU
56 | EFQSKSSPVPPASE | 78.8 BLU
57 | SFVTKYLPAAPVGS | 214.9 BLU
58 | QTGSKTVPQAPQAP | 62.9 BLU
